The Kd is the concentration at which binding is half-saturated.

In this test the target is Syt1 C2B (Mus musculus, UniProt P46096). As to the kind of experiment: […]-1H HSQC NMR titration, global fit of chemical shifts, single-site model. It is filed as binding.
Syt1 C2B, sequence (P46096 271-421): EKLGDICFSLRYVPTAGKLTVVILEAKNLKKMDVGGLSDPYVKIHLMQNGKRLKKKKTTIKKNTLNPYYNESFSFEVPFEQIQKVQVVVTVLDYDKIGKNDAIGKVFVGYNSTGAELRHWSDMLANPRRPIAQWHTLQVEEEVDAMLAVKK

As for `CCCC(=O)OC[C@H](COP(=O)(O)O[C@@H]1[C@H](O)[C@H](O)[C@@H](OP(=O)(O)O)[C@H](OP(=O)(O)O)[C@H]1O)OC(=O)CCC` [di-C4-PtdIns(4,5)P2], the Kd turned out to be 215 ± 16 µM.

(Values after doi:10.1101/810010v1 (biorxiv, 2019).)
